# Test results from PubChem BioAssay (NCI).
#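 Assay format: 96-well plates, 48-hour exposure. At the TGI there is no net growth.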
# Legend:
# Assay in all cases: NCI anticancer screen, dose series, 48 h
# [1] = tested on: HOP-18 NSCLC
# [2] = tested on: DMS 273 small cell lung
# [3] = tested on: SN12C renal
# [4] = tested on: OVCAR-3 ovarian
# [5] = tested on: A549 NSCLC
# [6] = tested on: DLD-1 colon
# [7] = tested on: DMS 114 small cell lung
# [8] = tested on: KM20L2 colon
# [9] = tested on: SNB-78 CNS
# [10] = tested on: SW-620 colon
# [11] = tested on: A498 renal
# [12] = tested on: NCI-H23 lung
# [13] = tested on: K-562 leukemia
# [14] = tested on: SK-OV-3 ovarian
# [15] = tested on: OVCAR-4 ovarian
# [16] = tested on: LXFL 529 NSCLC
# [17] = tested on: SF-539 CNS
# [18] = tested on: MOLT-4 leukemia
# [19] = tested on: ACHN renal
# [20] = tested on: SF-295 CNS
# [21] = tested on: SF-268 CNS
# [22] = tested on: RXF-631 renal
# [23] = tested on: 786-0 renal
# [24] = tested on: CCRF-CEM leukemia
# [25] = tested on: UO-31 renal
# [26] = tested on: EKVX NSCLC
# [27] = tested on: OVCAR-8 ovarian
# [28] = tested on: SK-MEL-5 melanoma
# [29] = tested on: SK-MEL-28 melanoma
# [30] = tested on: TK-10 renal
# [31] = tested on: U251 CNS
# [32] = tested on: SNB-75 CNS
# [33] = tested on: M14 melanoma
# [34] = tested on: CAKI-1 renal
# [35] = tested on: NCI-H460 lung
# [36] = tested on: HL-60(TB) leukemia
# [37] = tested on: HOP-62 NSCLC
# [38] = tested on: XF 498 CNS
# [39] = tested on: IGROV1 ovarian
# [40] = tested on: HCT-116 colon
# [41] = tested on: LOX IMVI melanoma
# [42] = tested on: UACC-62 melanoma
# [43] = tested on: COLO 205 colon
# [44] = tested on: HT29 colon
# [45] = tested on: HCT-15 colon
# [46] = tested on: M19-MEL melanoma
# [47] = tested on: UACC-257 melanoma
# [48] = tested on: OVCAR-5 ovarian
# [49] = tested on: SR leukemia
# [50] = tested on: NCI-H522 lung
# [51] = tested on: SNB-19 CNS
# [52] = tested on: HOP-92 NSCLC
# [53] = tested on: RXF 393 renal
# [54] = tested on: KM12 colon
smiles,measurement,setting,value
Cc1ccc(/C=C2\CCCCC2=O)cc1,TGI,[1],> 100 µM
same,TGI,[2],> 100 µM
same,TGI,[3],> 100 µM
same,TGI,[4],> 100 µM
same,TGI,[5],> 100 µM
same,TGI,[6],> 100 µM
same,TGI,[7],> 100 µM
same,TGI,[8],> 100 µM
same,TGI,[9],> 100 µM
same,TGI,[10],> 100 µM
same,TGI,[11],> 100 µM
same,TGI,[12],> 100 µM
same,TGI,[13],77.4 µM
same,TGI,[14],> 100 µM
same,TGI,[15],> 100 µM
same,TGI,[16],> 100 µM
same,TGI,[17],> 100 µM
same,TGI,[18],45.4 µM
same,TGI,[19],> 100 µM
same,TGI,[20],> 100 µM
same,TGI,[21],> 100 µM
same,TGI,[22],> 100 µM
same,TGI,[23],> 100 µM
same,TGI,[24],88.8 µM
same,TGI,[25],> 100 µM
same,TGI,[26],> 100 µM
same,TGI,[27],> 100 µM
same,TGI,[28],> 100 µM
same,TGI,[29],> 100 µM
same,TGI,[30],> 100 µM
same,TGI,[31],> 100 µM
same,TGI,[32],> 100 µM
same,TGI,[33],> 100 µM
same,TGI,[34],> 100 µM
same,TGI,[35],> 100 µM
same,TGI,[36],48.3 µM
same,TGI,[37],> 100 µM
same,TGI,[38],> 100 µM
same,TGI,[39],> 100 µM
same,TGI,[40],> 100 µM
same,TGI,[41],> 100 µM
same,TGI,[42],> 100 µM
same,TGI,[43],> 100 µM
same,TGI,[44],> 100 µM
same,TGI,[45],> 100 µM
same,TGI,[46],> 100 µM
COc1ccccc1-c1csc(CCC(N)C(=O)O)n1 (configuration not stated),TGI,[47],> 100 µM
same,TGI,[2],> 100 µM
same,TGI,[48],> 100 µM
same,TGI,[5],> 100 µM
same,TGI,[7],> 100 µM
same,TGI,[8],> 100 µM
same,TGI,[9],> 100 µM
same,TGI,[11],> 100 µM
same,TGI,[49],> 100 µM
same,TGI,[12],> 100 µM
same,TGI,[14],> 100 µM
same,TGI,[18],> 100 µM
same,TGI,[19],> 100 µM
same,TGI,[20],> 100 µM
same,TGI,[50],> 100 µM
same,TGI,[22],> 100 µM
same,TGI,[24],> 100 µM
same,TGI,[51],> 100 µM
same,TGI,[25],> 100 µM
same,TGI,[26],> 100 µM
same,TGI,[27],> 100 µM
same,TGI,[29],> 100 µM
same,TGI,[30],75.4 µM
same,TGI,[31],> 100 µM
same,TGI,[33],> 100 µM
same,TGI,[35],> 100 µM
same,TGI,[36],> 100 µM
same,TGI,[37],> 100 µM
same,TGI,[52],> 100 µM
same,TGI,[39],> 100 µM
same,TGI,[40],> 100 µM
same,TGI,[42],> 100 µM
same,TGI,[44],> 100 µM
same,TGI,[53],> 100 µM
same,TGI,[46],> 100 µM
same,TGI,[54],> 100 µM
